Bounds are passed on as bounds.

Test [1] addresses T1, hM4 receptors (Homo sapiens, UniProt P08173).
T1 construct: expressed in transfected cells; host or cells: CHO cells
T1 sequence (P08173 1-479): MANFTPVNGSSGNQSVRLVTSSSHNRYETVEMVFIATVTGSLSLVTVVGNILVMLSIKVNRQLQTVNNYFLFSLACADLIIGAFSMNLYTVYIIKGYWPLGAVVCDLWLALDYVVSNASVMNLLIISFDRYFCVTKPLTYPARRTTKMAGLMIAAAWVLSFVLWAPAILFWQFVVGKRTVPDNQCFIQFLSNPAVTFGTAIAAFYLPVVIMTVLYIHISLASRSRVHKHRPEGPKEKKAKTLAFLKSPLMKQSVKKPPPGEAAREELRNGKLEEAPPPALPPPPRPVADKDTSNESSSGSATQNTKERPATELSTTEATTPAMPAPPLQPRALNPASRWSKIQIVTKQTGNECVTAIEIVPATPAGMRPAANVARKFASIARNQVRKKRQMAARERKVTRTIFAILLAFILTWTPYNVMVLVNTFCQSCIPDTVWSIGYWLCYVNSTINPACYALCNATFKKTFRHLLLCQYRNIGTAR
Nature of the test: Human M4 PAM pERK assay. It is filed as cell-based. The settings on record: PAM mode. Summed up: (§1)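 CHO cells expressing hM4 or rM4 were serum-starved 4 h, then given compound (ten-point curve, 10 μM top, duplicate) with an EC20 of acetylcholine (10 nM final) for 5 min at 37° C. Phospho-ERK in lysates was detected by TR-FRET.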

In test [2] the target is T2, rM4 receptors (Rattus norvegicus, UniProt P08485).
T2 construct: expressed in transfected cells; host or cells: CHO cells
T2 sequence (P08485 1-478): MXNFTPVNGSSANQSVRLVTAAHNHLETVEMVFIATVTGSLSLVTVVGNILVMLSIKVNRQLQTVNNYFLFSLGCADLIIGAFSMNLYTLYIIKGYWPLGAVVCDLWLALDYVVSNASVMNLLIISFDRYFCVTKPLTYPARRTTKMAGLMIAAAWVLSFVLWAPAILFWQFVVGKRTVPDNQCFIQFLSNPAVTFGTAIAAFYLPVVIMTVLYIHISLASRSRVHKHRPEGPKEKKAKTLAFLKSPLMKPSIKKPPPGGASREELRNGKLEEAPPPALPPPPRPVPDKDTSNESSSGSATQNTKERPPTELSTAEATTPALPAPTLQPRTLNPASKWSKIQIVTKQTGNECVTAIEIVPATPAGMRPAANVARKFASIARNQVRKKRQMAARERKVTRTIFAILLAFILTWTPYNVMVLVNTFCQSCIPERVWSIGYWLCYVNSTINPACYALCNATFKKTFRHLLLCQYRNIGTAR
In words: Rat M4 PAM pERK assay. It counts as cell-based. The settings on record: PAM mode. Summed up: as §1

The target of test [3] is T3, human M4 receptor (Homo sapiens, UniProt P08173).
T3 construct: expressed in transfected cells
T3 sequence (P08173 1-479): T1 sequence (P08173 1-479)
In words: M4 GTPγS PAM assay. It is filed as biochemical. The settings on record: CHO-K1 membranes expressing human M4, with EC20 acetylcholine (40 nM). Summed up:
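Membranes from CHO-K1 cells stably expressing human M4 preincubated 10-15 min with compound in HEPES/MgCl2/NaCl buffer with 0.1 µM GDP, then with EC20 acetylcholine (40 nM) for 10-15 min. [35S]GTPγS added for 1 h at room temperature; filter-bound radioactivity counted by scintillation.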

As a reminder, the EC50 is the concentration that produces a half-maximal response. A higher EC50 goes with a need for much substance. `Cc1c2c(n(C)c(=O)c1Cl)CN(C(=O)c1cnn(C(F)(F)F)c1)C2` [Compound I-1, 3-chloro-1,4-dimethyl-6-(1-(Trifluoromethyl)-1H-pyrazole-4-carbonyl)-1,5,6,7-tetrahydro-2H-pyrrolo[3,4-b]pyridin-2-one]: the EC50 in test [1] is less than 100 nM; in test [2], 500 to 2000 nM; in test [3] it was 100 to 500 nM.

Turning to `Cc1c2c(n(C)c(=O)c1Cl)CN(C(=O)c1cnn(C(F)(F)F)c1)[C@@H]2C` [Compound I-76, (R)-3-Chloro-1,4,5-trimethyl-6-(1-(trifluoromethyl)-1H-pyrazole-4-carbonyl)-1,5,6,7-tetrahydro-2H-pyrrolo[3,4-b]pyridin-2-one], the EC50 is less than 100 nM in test [1], 100 to 500 nM in test [2] and less than 100 nM in test [3].

With `COc1c2c(n(C)c(=O)c1C)CN(C(=O)c1cnn(C(F)(F)F)c1)C2` [Compound I-87], the EC50 in test [1] was less than 100 nM; in test [2] it was greater than 2000 nM; in test [3], 100 to 500 nM.

For the origin of these results see patent US12421242B2, “Substituted tetrahydropyrrolo-pyridinone compounds and their use in treating medical conditions” (Karuna Therapeutics, Inc., priority 2022, dated 2025).
